The text below walks through data of US20250059179A1, “Heterocyclic Compounds and Methods of Use” (AMGEN INC., priority 2021, published 2025).

Bounds are passed on as bounds.

Test [1] concerns the target His-tagged KRAS G12D protein (Homo sapiens, UniProt P01116, G12D). Description: KRAS G12D TR-FRET Assay.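 Further: europium anti-His antibody paired with streptavidin-d2 as FRET partners, initial 30 min incubation, then peptide 1 h and detection reagents 1 h, all at room temperature.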 Format: binding. The settings on record: biotinylated KRPep-2d substrate, 10 μM GDP. For orientation: Time-resolved FRET reads energy transfer from a long-lived donor to a nearby acceptor.
Test [2] concerns the target GDP-bound KRAS protein (aa 1-169), containing both G12D and C118A amino acid substitutions (Homo sapiens, UniProt P01116, C118A/G12D). Briefly: KRAS G12D Coupled Nucleotide Exchange Assay.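 Further: IC50 obtained by fitting the AlphaScreen signal with a four-parameter logistic curve.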 The settings on record: 2 h compound pre-incubation; SOS-mediated nucleotide exchange, cRAF AlphaScreen readout. Format: biochemical.
In test [3] the test system is Phosphorylation of ERK1/2 in A-427 cells. Briefly: Phospho-ERK1/2 MSD Assay. The settings on record: Homo sapiens, A-427, 2 h, 2 h compound treatment, read-out: pERK (A427 cells) IC50. Type of test: cell-based. On the procedure:
A-427 (ATCC® HTB-53™) cells were cultured in RPMI 1640 Medium (ThermoFisher Scientific 11875093) containing 10% fetal bovine serum (ThermoFisher Scientific 16000044) and 1× penicillin-streptomycin-glutamine (ThermoFisher Scientific 10378016). Sixteen hours prior to compound treatment, A-427 cells were seeded in 96-well cell culture plates at a density of 25,000 cells/well and incubated at 37° C., 5% CO2. A compound dose-response titration was diluted in growth media, added to appropriate wells of a cell culture plate, and then incubated at 37° C., 5% CO2 for 2 h. Following compound treatment, cells were washed with ice-cold Dulbecco's phosphate-buffered saline, no Ca^2+ or Mg^2+ (ThermoFisher Scientific 14190144), and then lysed in RIPA buffer (50 mM Tris-HCl pH 7.5, 1% Igepal, 0.5% sodium deoxycholate, 150 mM NaCl, and 0.5% sodium dodecyl sulfate) containing protease inhibitors (Roche 4693132001) and phosphatase inhibitors (Roche 4906837001). Phosphorylation of ERK1/2 in compound-treated lysates was assayed using Phospho-ERK1/2 Whole Cell Lysate kits (Meso Scale Discovery K151DWD) according to the manufacturer's protocol. Assay plates were read on a Meso Scale Discovery Sector Imager 6000, and data were analyzed using a 4-parameter logistic model to calculate IC50 values.

Sequence of His-tagged KRAS G12D protein (P01116 1-188 isoform P01116-2 G12D): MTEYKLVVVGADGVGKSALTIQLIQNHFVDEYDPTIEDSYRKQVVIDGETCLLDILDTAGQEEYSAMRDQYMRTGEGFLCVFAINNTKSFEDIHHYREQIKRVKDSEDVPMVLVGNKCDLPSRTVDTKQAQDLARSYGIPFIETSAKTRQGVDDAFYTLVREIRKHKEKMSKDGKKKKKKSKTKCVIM
Sequence of GDP-bound KRAS protein (aa 1-169), containing both G12D and C118A amino acid substitutions (P01116 1-169 isoform P01116-2 G12D/C118A): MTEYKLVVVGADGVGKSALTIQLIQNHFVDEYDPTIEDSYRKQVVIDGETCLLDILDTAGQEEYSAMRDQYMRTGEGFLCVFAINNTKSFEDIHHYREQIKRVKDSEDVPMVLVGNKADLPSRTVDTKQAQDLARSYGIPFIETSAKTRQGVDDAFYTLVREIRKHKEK

What is called IC50 is the point on the concentration scale where inhibition reaches its midpoint. In the case of `Nc1nc2c(-c3c(Cl)cc4c(N5CCNCC5)nc(OCC56CCCCN5CCC6)nc4c3F)cccc2s1` (stereo not drawn) [Example 57, 4-(6-chloro-8-fluoro-2-((hexahydro-indolizin-8a(1H)-yl)methoxy)-4-(piperazin-1-yl)quinazolin-7-yl)benzo[d] thiazol-2-amine], the results for the IC50 in test [1] and in test [3] were 0.265 µM and over 25 µM, respectively. Also, in test [2], the “Avg 2 h Coupled Exchange IC50” value was 0.141 µM.
For `CN1CC[C@@H]1COc1nc(N2CCNCC2)c2cc(Cl)c(-c3cccc4sc(N)nc34)c(F)c2n1` [Example 58, 4-(6-chloro-8-fluoro-2-(((R)-1-methylazetidin-2-yl)methoxy)-4-(piperazin-1-yl)quinazolin-7-yl)benzo[d] thiazol-2-amine], the results for the IC50 in test [1] and in test [3] were 0.444 µM and 18.2 µM, respectively. The “Avg 2 h Coupled Exchange IC50” value in test [2] is 0.176 µM.
In the same order, the values of `CN1CCCCC1CCOc1nc(N2CCNCC2)c2cc(Cl)c(-c3cccc4sc(N)nc34)c(F)c2n1` (stereo not drawn) [Example 60, 4-(6-chloro-8-fluoro-2-(2-(1-methylpiperidin-2-yl)ethoxy)-4-(piperazin-1-yl)quinazolin-7-yl)benzo[d] thiazol-2-amine] are 0.48 µM, over 25 µM and 0.343 µM.
For `CN1CCC[C@H]1CCOc1nc(N2CCNCC2)c2cc(Cl)c(-c3cccc4sc(N)nc34)c(F)c2n1` [Example 61, 4-(6-chloro-8-fluoro-2-(2-((S)-1-methyl-pyrrolidin-2-yl)ethoxy)-4-(piperazin-1-yl)quinazolin-7-yl)benzo[d] thiazol-2-amine] the same measures were 0.476 µM, over 25 µM and 0.361 µM.
Regarding `Nc1nc2c(-c3c(Cl)cc4c(N5CCNCC5)nc(OC[C@@H]5CCCN5)nc4c3F)cccc2s1` [Example 72, 4-(6-chloro-8-fluoro-4-(piperazin-1-yl)-2-(((S)-pyrrolidin-2-yl)methoxy)quinazolin-7-yl)benzo[d] thiazol-2-amine], the results for the concentration for half-maximal inhibition (IC50) in test [1] and in test [3] were 0.112 µM and over 10 µM, respectively. Moreover, the “Avg 2 h Coupled Exchange IC50” value in test [2] came out at 0.063 µM.
For `C[C@@]1(COc2nc(N3CCNCC3)c3cc(Cl)c(-c4cccc5sc(N)nc45)c(F)c3n2)CCCN1` [Example 73, 4-(6-chloro-8-fluoro-2-(((S)-2-methyl-pyrrolidin-2-yl)methoxy)-4-(piperazin-1-yl)quinazolin-7-yl)benzo[d] thiazol-2-amine], the IC50 was 0.06 µM in test [1] and over 10 µM in test [3]. Also, the “Avg 2 h Coupled Exchange IC50” value in test [2] was 0.036 µM.
In the same order, the values of `C[C@]1(COc2nc(N3CCNCC3)c3cc(Cl)c(-c4cccc5sc(N)nc45)c(F)c3n2)CCCN1` [Example 74, 4-(6-chloro-8-fluoro-2-(((R)-2-methyl-pyrrolidin-2-yl)methoxy)-4-(piperazin-1-yl)quinazolin-7-yl)benzo[d] thiazol-2-amine] are 0.228 µM, over 10 µM and 0.122 µM.
In the same order, the values of `Nc1nc2c(-c3c(Cl)cc4c(N5[C@@H]6CNC[C@H]5COC6)nc(OC[C@@]56CCCN5C[C@H](F)C6)nc4c3F)ccc(F)c2s1` [Example 122, 4-(4-((1R,5S)-3-Oxa-7,9-diazabicyclo[3.3.1]nonan-9-yl)-6-chloro-8-fluoro-2-(((2R,7aS)-2-fluorotetrahydro-1H-pyrrolizin-7a(5H)-yl)methoxy)quinazolin-7-yl)-7-fluorobenzo[d]thiazol-2-amine] are 0.004 µM, 0.167 µM and 0.003 µM.
Take `Nc1nc2c(-c3c(Cl)cc4c(N5[C@@H]6CC[C@H]5CNC6)nc(OC[C@]56CCCN5C[C@H](F)C6)nc4c3F)ccc(F)c2s1` [Example 123, 4-(4-((1R,5S)-3,8-diazabicyclo[3.2.1]octan-8-yl)-6-chloro-8-fluoro-2-(((2R,7aR)-2-fluorotetrahydro-1H-pyrrolizin-7a(5H)-yl)methoxy)quinazolin-7-yl)-7-fluorobenzo[d]thiazol-2-amine]: the IC50 is 0.005 µM in test [1] and 0.069 µM in test [3]. In addition, the “Avg 2 h Coupled Exchange IC50” value in test [2] is 0.006 µM.
